Laboratory results reported in the supplement of paper PMC5908809.

What was measured:
[1] = tested on: normal NK cells expanded with K562-aAPC; assay: percent inhibition of viability; higher = more inhibition; conditions: 72 h, IL-2 2.5 ng/mL
Procedure: (§1)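 Drug sensitivity and resistance testing on K562-aAPC-expanded normal NK cells: 5 concentrations (10-fold steps over a 10,000-fold range), 72 h at 37 °C, viability by CellTiter-Glo normalised to DMSO and benzethonium chloride controls; DSS from the fitted curve.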

KAI3 (IL-2 2.5 ng/mL) [2] = assay: drug sensitivity score (DSS) (DSS units); higher = more sensitive; extreme values may be limits of the assay; conditions: 72 h
[3] = tested on: normal primary NK cells, pool 3 (3 donors) (IL-2 2.5 ng/mL); assay: as above; conditions: 72 h
KHYG-1 (IL-2 2.5 ng/mL) [4] = assay: as above; conditions: 72 h
[5] = tested on: normal primary NK cells, pool 2 (3 donors) (IL-2 2.5 ng/mL); assay: as above; conditions: 72 h
NKL (IL-2 2.5 ng/mL) [6] = assay: as above; conditions: 72 h
NK-92 (IL-2 2.5 ng/mL) [7] = assay: as above; conditions: 72 h
IMC-1 (IL-2 20 ng/mL) [8] = assay: as above; conditions: 72 h
[9] = tested on: normal primary NK cells, pool 1 (3 donors) (IL-2 2.5 ng/mL); assay: as above; conditions: 72 h
YT (IL-2 2.5 ng/mL) [10] = assay: as above; conditions: 72 h
SNK-6 (IL-2 2.5 ng/mL) [11] = assay: as above; conditions: 72 h
DERL-7 (IL-2 2.5 ng/mL) [12] = assay: as above; conditions: 72 h
NK-YS (IL-2 2.5 ng/mL) [13] = assay: as above; conditions: 72 h
[14] = tested on: normal primary NK cells, pool 1 (3 donors), resting (IL-2 0 ng/mL); assay: as above; conditions: 72 h
KAI3 (IL-2 2.5 ng/mL) [15] = assay: percent inhibition of viability; higher = more inhibition; conditions: 72 h
[16] = tested on: normal primary NK cells, pool 3 (3 donors) (IL-2 2.5 ng/mL); assay: as above; conditions: 72 h
KHYG-1 (IL-2 2.5 ng/mL) [17] = assay: as above; conditions: 72 h
[18] = tested on: normal primary NK cells, pool 2 (3 donors) (IL-2 2.5 ng/mL); assay: as above; conditions: 72 h
NKL (IL-2 2.5 ng/mL) [19] = assay: as above; conditions: 72 h
NK-92 (IL-2 2.5 ng/mL) [20] = assay: as above; conditions: 72 h
IMC-1 (IL-2 20 ng/mL) [21] = assay: as above; conditions: 72 h
[22] = tested on: normal primary NK cells, pool 1 (3 donors) (IL-2 2.5 ng/mL); assay: as above; conditions: 72 h
YT (IL-2 2.5 ng/mL) [23] = assay: as above; conditions: 72 h
SNK-6 (IL-2 2.5 ng/mL) [24] = assay: as above; conditions: 72 h
DERL-7 (IL-2 2.5 ng/mL) [25] = assay: as above; conditions: 72 h
NK-YS (IL-2 2.5 ng/mL) [26] = assay: as above; conditions: 72 h
[27] = tested on: normal primary NK cells, pool 1 (3 donors), resting (IL-2 0 ng/mL); assay: as above; conditions: 72 h
[28] = tested on: normal NK cells expanded with K562-aAPC; assay: drug sensitivity score (DSS) (DSS units); higher = more sensitive; extreme values may be limits of the assay; conditions: 72 h; IL-2 2.5 ng/mL
Procedure: as §1

CC(C)(C)NC(=O)[C@H]1CC[C@H]2[C@@H]3CC[C@H]4NC(=O)C=C[C@]4(C)[C@H]3CC[C@]12C [Finasteride] (max concentration tested 10000 nM)
percent inhibition of viability [%]
Conditions | 1 nM | 10 nM | 100 nM | 1000 nM | 10000 nM
DERL-7 (IL-2 2.5 ng/mL) [25] | 8.57 | -6.64 | 5.89 | -0.19 | 12.4
IMC-1 (IL-2 20 ng/mL) [21] | -6.06 | -4.68 | -1.34 | 2.37 | 27.1
KAI3 (IL-2 2.5 ng/mL) [15] | 2.67 | 5.19 | 10.5 | 4.13 | 28.6
KHYG-1 (IL-2 2.5 ng/mL) [17] | -6.44 | -5.37 | 3.63 | 2.04 | 10.9
NK-92 (IL-2 2.5 ng/mL) [20] | -2.71 | -10.9 | 0.46 | 4.24 | 44.5
NK-YS (IL-2 2.5 ng/mL) [26] | -10.4 | -1.41 | -5.34 | 5.54 | 10.5
NKL (IL-2 2.5 ng/mL) [19] | 5.94 | -9.09 | 10.7 | 13 | 34.2
SNK-6 (IL-2 2.5 ng/mL) [24] | -3.02 | -28.7 | -17.3 | -25.3 | -11.3
YT (IL-2 2.5 ng/mL) [23] | 4.41 | -7.13 | 5.2 | -3.12 | 30.2
[1] | -10.9 | -11.1 | -5.78 | 1.82 | 14.1
[16] | 1.72 | -0.73 | 15.2 | -6.78 | 1.67
[18] | -2.14 | -1.25 | 3.98 | -1.8 | 12.4
[22] | -9.53 | 1.23 | 3.62 | -7.18 | 3.28
[27] | 1.92 | 14 | 3.85 | 6.98 | 20.4

Conditions | drug sensitivity score
DERL-7 (IL-2 2.5 ng/mL) [12] | 0.06
IMC-1 (IL-2 20 ng/mL) [8] | 1.45
KAI3 (IL-2 2.5 ng/mL) [2] | 1.87
KHYG-1 (IL-2 2.5 ng/mL) [4] | 0.04
NK-92 (IL-2 2.5 ng/mL) [7] | 2.97
NK-YS (IL-2 2.5 ng/mL) [13] | 0.05
NKL (IL-2 2.5 ng/mL) [6] | 2.88
SNK-6 (IL-2 2.5 ng/mL) [11] | 0
YT (IL-2 2.5 ng/mL) [10] | 1.11
[3] | 0
[5] | 0.04
[9] | 0
[14] | 0.89
[28] | 0.32
